Measured values taken from US20260159536A1, “AKR1C3-ACTIVATED DNA ALKYLATING AGENT, AND MEDICAL APPLICATION THEREOF” (ASCENTAWITS PHARMACEUTICALS, LTD., priority 2021, published 2026).
Where two headings read alike, the source gives them in different places.

Assays:
[1] = Liver microsome stability, human; type: in vitro ADME; conditions: Human liver microsomes; with the addition of NADPH
Protocol: (§1) 1) Two individual experiments were performed.
(§2) All experiments were performed in duplicate.

[2] = Liver microsome stability, monkey; type: in vitro ADME; conditions: Monkey liver microsomes; with the addition of NADPH
Protocol: as §1, §2

NCI-H23 = experiment: AKR1C3-dependent cytotoxicity, NSCLC cell line NCI-H23; type: cell-based; conditions: Homo sapiens
Protocol: (§3) The tested compound was then added. The compound was dissolved in 100% DMSO at 200 times of the desired final test concentration. When the medicament was added, the compound was further diluted to 4 times of the desired final test concentration by using the complete medium. 50 μL of aliquots of the compound with specific concentration were added to the microwells containing 150 μL of medium, and then the final medicament concentration was obtained. […] The medicament was then washed. […] After the incubation was finished, the Alamar Blue was used to analyze and quantify the living cells.

[3] = test system: HuPrime model LI6664 human liver cancer; experiment: In vivo pharmacodynamics, liver cancer LI6664 PDX model; parameters: species or system BALB/c nude mice; conditions: for Relative tumor volume (x ± S) / Tumor volume (x ± S): mean ± standard error; for Tumor volume (x ± S): in mm³ (unit assumed)
Protocol: Experiment Instruction: BALB/c nude mice were subcutaneously inoculated with HuPrime® model LI6664 tumor blocks to establish a subcutaneous transplantation tumor model of human liver cancer. […] Among them, 7.5% anhydrous ethanol+7.5% polyoxyethylene (35) castor oil+85% glucose injection D5W (pH 7.4) vehicle control group was administered by tail vein once a week for 3 consecutive weeks; test drug AST-3424 0.3 mg/kg and 1 mg/kg groups were administered by tail vein injection once a day for 5 consecutive days, followed by 2 days off, followed by 2 weeks off, and then continuously administered for 5 consecutive days; the test drug AST-3424 1.25 mg/kg group was administered by tail vein injection once a week for 2 consecutive weeks, followed by one week off, and then continuously administered for 2 consecutive weeks, Compound A 0.5 mg/kg, 1.5 mg/kg, and 4.5 mg/kg groups were administered by tail vein injection once a week for three consecutive weeks, followed by 1 week off, and then administered for three consecutive weeks. […] The efficacy was evaluated according to the relative tumor inhibition rate TGI (%), and the safety was evaluated according to the change in body weight and the death of the animals.

[4] = Liver microsome stability, mouse; type: in vitro ADME; conditions: Mouse liver microsomes; with the addition of NADPH
Protocol: as §1, §2

NCI-H1792 = experiment: AKR1C3-dependent cytotoxicity, NSCLC cell line NCI-H1792; type: cell-based; conditions: Homo sapiens
Protocol: as §3

NCI-H2110 = experiment: AKR1C3-dependent cytotoxicity, NSCLC cell line NCI-H2110; type: cell-based
Protocol: as §3

NCI-H2228 = experiment: AKR1C3-dependent cytotoxicity, NSCLC cell line NCI-H2228; type: cell-based; conditions: Homo sapiens
Protocol: as §3

[5] = test system: HuPrime model GA6201 human gastric cancer; conditions: for Tumor volume: AST-3424 5 mg/kg i.v.
Protocol: The test was divided into groups of the test drug Isocyclophosphamide 60 mg/kg group, the test drug AST-3424 5 mg/kg group, the test drug A compound 2.5 mg/kg and 5 mg/kg groups, and normal saline (pH 7.0-7.6) vehicle control group, a total of 5 groups, with 5 mice per group.
In the above dosing regimen, Isocyclophosphamide was designed based on the best dosing regimen with maximum safe dosage as recited in the document (Jessica D. Sun, Qian Liu, Dharmendra Ahluwalia, Damien J. Ferraro, Yan Wang, Don Jung, Mark D. Matteucci, and Charles P. Hart. Comparison of hypoxia-activated prodrug evofosfamide (TH-302) and ifosfamide in preclinical non-small cell lung cancer models [J]. Cancer Biology & Therapy, 2016, 17(4): 371-380).

[6] = AST-3424 5 mg/kg i.v. QWx2, Day 38

C[C@@H](OP(=O)(N1CC1)N1CC1)c1ccc([N+](=O)[O-])c(Oc2cccc(C(=O)N(C)C)c2)c1 [AST-3424]
Percentage remaining after 30 minutes [1]: 10.65%
Percentage remaining after 30 minutes [2]: 0.03%
IC50 (NCI-H23): > 1000 nM
relative tumor inhibition rate TGI (%) ([3]; 0.3 mg/kg i.v. QDx5, 2 days off, 2 weeks off, QDx5, Day 28): 45.85%
relative tumor inhibition rate TGI (%) ([3]; 1 mg/kg i.v. QDx5, 2 days off, 2 weeks off, QDx5, Day 28): 65.05%
relative tumor inhibition rate TGI (%) ([3]; 1.25 mg/kg i.v. QWx2, 1 week off, QWx2, Day 28): 52.42%
T/C (%) ([3]; AST-3424 0.3 mg/kg, Day 28): 54.15%
Relative tumor volume (x ± S) ([3]; AST-3424 0.3 mg/kg, Day 28): 6.99 ± 1.31
Tumor volume (x ± S) ([3]; AST-3424 0.3 mg/kg, Day 28): 746.71 ± 130.55
T/C (%) ([3]; AST-3424 1 mg/kg, Day 28): 34.95%
Relative tumor volume (x ± S) ([3]; AST-3424 1 mg/kg, Day 28): 4.51 ± 1.21
Tumor volume (x ± S) ([3]; AST-3424 1 mg/kg, Day 28): 463.09 ± 99.32
T/C (%) ([3]; AST-3424 1.25 mg/kg, Day 28): 47.58%
Relative tumor volume (x ± S) ([3]; AST-3424 1.25 mg/kg, Day 28): 6.14 ± 0.94
Tumor volume (x ± S) ([3]; AST-3424 1.25 mg/kg, Day 28): 687.95 ± 147.16
Size of tumor volume ([3]; Group3, AST-3424 0.3 mg/kg, Day 0): 108.20 mm^3
Size of tumor volume ([3]; Group3, AST-3424 0.3 mg/kg, Day 4): 162.32 mm^3
Size of tumor volume ([3]; Group3, AST-3424 0.3 mg/kg, Day 7): 177.51 mm^3
Size of tumor volume ([3]; Group3, AST-3424 0.3 mg/kg, Day 11): 208.59 mm^3
Size of tumor volume ([3]; Group3, AST-3424 0.3 mg/kg, Day 14): 306.95 mm^3
Size of tumor volume ([3]; Group3, AST-3424 0.3 mg/kg, Day 18): 391.40 mm^3
Size of tumor volume ([3]; Group3, AST-3424 0.3 mg/kg, Day 21): 499.34 mm^3
Size of tumor volume ([3]; Group3, AST-3424 0.3 mg/kg, Day 25): 631.08 mm^3
Size of tumor volume ([3]; Group3, AST-3424 0.3 mg/kg, Day 28): 746.71 mm^3
Size of tumor volume ([3]; Group3, AST-3424 0.3 mg/kg, Day 32): 958.09 mm^3
Size of tumor volume ([3]; Group3, AST-3424 0.3 mg/kg, Day 35): 1059.71 mm^3
Size of tumor volume ([3]; Group3, AST-3424 0.3 mg/kg, Day 39): 1226.51 mm^3
Size of tumor volume ([3]; Group3, AST-3424 0.3 mg/kg, Day 42): 1094.69 mm^3
Size of tumor volume ([3]; Group3, AST-3424 0.3 mg/kg, Day 46): 1268.82 mm^3
Size of tumor volume ([3]; Group3, AST-3424 0.3 mg/kg, Day 49): 1486.77 mm^3
Size of tumor volume ([3]; Group4, AST-3424 1 mg/kg, Day 0): 107.53 mm^3
Size of tumor volume ([3]; Group4, AST-3424 1 mg/kg, Day 4): 131.59 mm^3
Size of tumor volume ([3]; Group4, AST-3424 1 mg/kg, Day 7): 145.23 mm^3
Size of tumor volume ([3]; Group4, AST-3424 1 mg/kg, Day 11): 158.03 mm^3
Size of tumor volume ([3]; Group4, AST-3424 1 mg/kg, Day 14): 233.54 mm^3
Size of tumor volume ([3]; Group4, AST-3424 1 mg/kg, Day 18): 291.97 mm^3
Size of tumor volume ([3]; Group4, AST-3424 1 mg/kg, Day 21): 371.35 mm^3
Size of tumor volume ([3]; Group4, AST-3424 1 mg/kg, Day 25): 438.00 mm^3
Size of tumor volume ([3]; Group4, AST-3424 1 mg/kg, Day 28): 463.09 mm^3
Size of tumor volume ([3]; Group4, AST-3424 1 mg/kg, Day 32): 622.48 mm^3
Size of tumor volume ([3]; Group4, AST-3424 1 mg/kg, Day 35): 748.13 mm^3
Size of tumor volume ([3]; Group4, AST-3424 1 mg/kg, Day 39): 929.60 mm^3
Size of tumor volume ([3]; Group4, AST-3424 1 mg/kg, Day 42): 1226.79 mm^3
Size of tumor volume ([3]; Group4, AST-3424 1 mg/kg, Day 46): 1496.83 mm^3
Size of tumor volume ([3]; Group4, AST-3424 1 mg/kg, Day 49): 1717.60 mm^3
Size of tumor volume ([3]; Group5, AST-3424 1.25 mg/kg, Day 0): 108.46 mm^3
Size of tumor volume ([3]; Group5, AST-3424 1.25 mg/kg, Day 4): 174.65 mm^3
Size of tumor volume ([3]; Group5, AST-3424 1.25 mg/kg, Day 7): 210.25 mm^3
Size of tumor volume ([3]; Group5, AST-3424 1.25 mg/kg, Day 11): 222.97 mm^3
Size of tumor volume ([3]; Group5, AST-3424 1.25 mg/kg, Day 14): 291.02 mm^3
Size of tumor volume ([3]; Group5, AST-3424 1.25 mg/kg, Day 18): 361.03 mm^3
Size of tumor volume ([3]; Group5, AST-3424 1.25 mg/kg, Day 21): 467.94 mm^3
Size of tumor volume ([3]; Group5, AST-3424 1.25 mg/kg, Day 25): 581.63 mm^3
Size of tumor volume ([3]; Group5, AST-3424 1.25 mg/kg, Day 28): 687.95 mm^3
Size of tumor volume ([3]; Group5, AST-3424 1.25 mg/kg, Day 32): 746.71 mm^3
Size of tumor volume ([3]; Group5, AST-3424 1.25 mg/kg, Day 35): 871.84 mm^3
Size of tumor volume ([3]; Group5, AST-3424 1.25 mg/kg, Day 39): 1081.64 mm^3
Size of tumor volume ([3]; Group5, AST-3424 1.25 mg/kg, Day 42): 1307.36 mm^3
Size of tumor volume ([3]; Group5, AST-3424 1.25 mg/kg, Day 46): 1675.14 mm^3
Size of tumor volume ([3]; Group5, AST-3424 1.25 mg/kg, Day 49): 1923.31 mm^3
weight loss ([3]; mouse, in vivo): no weight loss
Percentage remaining after 30 minutes [4]: 3.1%
IC50 (NCI-H1792): 4.5 nM
IC50 (NCI-H2110): 1.1 nM
IC50 (NCI-H2228): 0.21 nM
Relative tumor volume (x ± S) [5, 6]: 0.11 ± 0.07
T/C (%) [5, 6]: 1.21%
TGI (%) [5, 6]: 98.79%
Tumor volume (x ± S) [5, 6]: 12.65 ± 7.91
Tumor volume ([5]; 0 day): 94.19 mm^3
Tumor volume ([5]; 3 days): 114.98 mm^3
Tumor volume ([5]; 7 days): 84.33 mm^3
Tumor volume ([5]; 10 days): 77.04 mm^3
Tumor volume ([5]; 14 days): 63.59 mm^3
Tumor volume ([5]; 17 days): 52.08 mm^3
Tumor volume ([5]; 21 days): 45.81 mm^3
Tumor volume ([5]; 24 days): 40.55 mm^3
Tumor volume ([5]; 28 days): 30.28 mm^3
Tumor volume ([5]; 31 days): 23.24 mm^3
Tumor volume ([5]; 35 days): 18.55 mm^3
Tumor volume ([5]; 38 days): 12.65 mm^3
Tumor volume ([5]; 42 days): 13.42 mm^3
Tumor volume ([5]; 45 days): 10.82 mm^3
Tumor volume ([5]; 49 days): 8.15 mm^3
body weight change / toxic effects ([5]; GA6201 model, tested doses): no toxic effects
